Experimental data reported in patent US12570970B2, “Inorganic phosphate as a stabilizer for phytase enzymes” (DANISCO US INC, priority 2018, dated 2026).
Structures can show the parent of a compound that is named as a salt. One block for each compound: values may come before it.

Assays:
[1] = system: BP-17 phytase; assay: Thermal inactivation of BP-17 phytase at 70° C. in the presence of stabilizing salts, residual activity by colorimetric assay; type: biochemical, Buttiauxella sp.; settings: for phytase activity state: 70° C.
Procedure: An experiment was performed to determine whether the addition of excipients during thermal stress conditions allows the phytase enzyme to retain its activity. A temperature was selected at which the phytase enzyme is completely inactivated in the absence of excipient after 30-minutes incubation. Excipient solutions were prepared at their highest solubility. then titrated from highest to lowest concentrations prior to their addition to the phytase UFC. The enzyme/excipient combinations were then exposed to a temperature of 70° C., and the residual activity was measured after 2, 5, 10, 20, 30, and 60-minutes incubation via a colorimetric activity assay
A 20% (or 1.41 M) sodium phosphate solution was prepared by dissolving 5 grams of sodium phosphate dibasic anhydrous into 25 mL of water. The pH was adjusted to 5.5 using concentrated phosphoric acid. A 25% (or 0.85 M) sodium citrate solution was prepared by dissolving 5 grams of sodium citrate dihydrate into 20 mL of water. The pH was adjusted to 5.5 using 80% citric acid.
A volume of 80 μL of the 20% sodium phosphate stock solution was added to the first well of 8 different 12-well PCR strips. A volume of 40 μL of −Q water was added to wells 2, 3. 4, 5, and 6 of each PCR strip. The sodium phosphate stock solution was serially diluted 2-fold sequentially from well 1 to well 6. A volume of 80 μL of the 25% sodium citrate stock solution was added to well 7 of each PCR strip. A volume of 40 μL of water was added to wells 8, 9, 10, 11, and 12 of each PCR strip. The sodium citrate stock solution was serially diluted 2-fold sequentially from well 7 to well 11, leaving well 12 to contain water only. The BP-17 phytase UFC was diluted 50-fold in autoclaved water. A volume of 40 μL of the diluted UFC was added to each well of the 8 different 12-well PCR strips containing the diluted excipients.
The temperature cycler was programmed to a temperature of 70° C. One PCR strip was sealed and placed immediately on ice for the time zero measurement. The remaining PCR strips were sealed, placed inside the PCR, incubated for varying increments of time (0.5, 2, 5, 10, 20, 30, and 60 minutes), then removed from the PCR and placed immediately on ice. After each of the PCR strips had been collected on ice, they were placed on a 96-well PCR tube rack and centrifuged for 2 minutes at 3500 rpm.
As some precipitation occurred during thermal inactivation, the PCR strips were subjected to centrifugation and the supernatant was removed and diluted with assay buffer (0.1 M acetate Buffer pH 5.5+0.05% w/v Tween 20) to a final activity of 0.012 FTU/mL in a non-binding (Corning 3641) 96-well plate. A volume of 40 μL was transferred from the enzyme dilution plate into a separate reaction plate (Costar 9017, medium binding). A volume of 40 μL of substrate (150 μM sodium phytate) was then added to each of the wells of the reaction plate. The reaction plate was sealed and incubated for 10 minutes at 25° C. and 900 rpm. A volume of 170 μL of Pi Blue stop/color reagent (POPB-500 by BioAssay Systems US) was then added to each well of the reaction plate to stop the reaction. The plate was sealed and incubated for 30 minutes at 25° C. and 400 rpm for color development, then read in a spectrophotometer at 620 nm.

[2] = system: BP-17 phytase; assay: Mechanism of inhibition: phytase activity with titrated substrate and titrated excipient (PNPP assay); type: biochemical, Buttiauxella sp.; settings: ambient assay conditions (25° C.)
Procedure: Kinetic analysis was performed to determine the mechanism of stabilization of both the sodium phosphate and sodium citrate with respect to the phytase enzyme by measuring the activity of phytase in the presence of both titrated substrate and titrated excipient concentrations.
The BP-17 phytase UFC was diluted 7,000-fold in 0.1 M acetate buffer pH 5.5.
The substrate stock solution (400 mM) was prepared by dissolving 0.923 grams of 4-nitrophenyl phosphate di (tris) salt into 5 mL of 0.25 M acetate buffer pH 5.5. A volume of 200 μL of the substrate stock solution was added to columns 1 and 7 of a 96-well plate. A volume of 100 μL of 0.25 M acetate Buffer pH 5.5 was added to columns 2-6 and 8-12 of the same 96-well plate. Serial dilutions were performed by transferring 100 μL from column 1 into column 2 of the 96-well plate, and then repeating this dilution pattern across the plate to column 6 so that the following substrate concentrations were made: 400, 200, 100, 50, 25, and 12.5 mM. The same serial dilutions were performed across the second half of the plate from columns 7 to 12.
A 20% (or 1.41 M) sodium phosphate solution was prepared by dissolving 5 grams of sodium phosphate dibasic anhydrous into 25 mL of 0.1 M acetate buffer pH 5.5. […]

[3] = system: BP-17 phytase; assay: Phytase melting temperature (Tm) in the presence of excipients, differential scanning fluorimetry (nanoDSF); type: physicochemical, Buttiauxella sp.
Procedure: An experiment was performed to determine whether the addition of different excipients during thermal exposure increases the melting temperature of the phytase enzyme in the liquid state. Excipient solutions were prepared at their highest solubility, then titrated from highest to lowest concentrations prior to their addition to the phytase UFC. The enzyme/excipient combinations were then exposed to a temperature profile of 21-95° C., and the melting temperatures were measured via differential scanning fluorimetry. The concentration of phytase in the UFC was measured at 123.9 g/L via HPLC. […] A 20% phytic acid solution was prepared by dissolving 1 gram of phytic acid into 5 mL of 0.1 M acetate buffer pH 5.5. The pH was adjusted from 4.2 to 5.47 using 20% NaOH, and then the solution was filtered using a 0.45 μM syringeless filter. A 25% sodium sulfate anhydrous solution was prepared by dissolving 5 grams into 20 mL of water. The pH was adjusted to 5.6 using sulfuric acid, and then the solution was filtered using a 0.45 μM syringeless filter. A 20% sodium polyphosphate solution was prepared by dissolving 5 grams into 25 mL of water. The pH was adjusted to 5.6 using concentrated phosphoric acid, and then the solution was filtered using a […] syringeless filter. […] The pH was adjusted to 5.6 using 80% citric acid, and then the solution was filtered using a 0.45 μM syringeless filter. A 20% sodium phosphate dibasic solution was prepared by dissolving 2 grams into 10 mL of water. The pH was adjusted to 5.6 using concentrated phosphoric acid, and then the solution was filtered using a 0.45 μM syringeless filter. A volume of 100 μL of an excipient stock solution was added to well A in column 1 of a 96-well plate. A volume of 50 μL of water was added to each well B-H in column 1 of the same 96-well plate. The excipient stock solution was titrated 2-fold down the column of the plate by transferring 50 μL into each subsequent well. A volume of 80 μL of the pH adjusted UFC was added to each of the wells in column 1 of a new 96-well plate. A volume of 20 μL was transferred from each well of the titrated excipient directly into the corresponding well containing the UFC. The 96-well plate containing the enzyme and excipient combinations was mixed on a plate shaker for 5 seconds. Standard capillaries for the nanoDSF were filled by dipping a capillary in each well of the 96-well plate, and then loading onto the Nanotemper instrument. The Nanotemper instrument was programmed to run at 10% excitation power and 21-95° C. with a 1° C./minute ramp. The Nanotemper instrument monitors the shift of intrinsic tryptophan fluorescence of proteins upon unfolding by measuring wavelengths at 330 and 350 nm.

SMILES: O.O.O=C([O-])CC(O)(CC(=O)[O-])C(=O)[O-].[Na+].[Na+].[Na+] [sodium citrate, Sodium citrate dihydrate, reference compound]
phytase activity retained ([1]; 425 mM sodium citrate, 60-minutes incubation at 70° C., FIG. 7): approximately 90%
phytase activity retained ([1]; half of 425 mM sodium citrate, 60-minutes incubation at 70° C., FIG. 7): ≤ 50%
phytase activity state ([1]; sodium citrate below half of 425 mM, FIG. 7): inactivated
excipient concentration at which phytase activity loss levels out ([2]; increasing phytic acid substrate, FIG. 9): ≥ 26 mM

relative residual phytase activity retained ([1]; 352 mM sodium phosphate, 60-minutes incubation at 70° C., FIG. 6): approximately 90%
phytase activity retained ([1]; half of 352 mM sodium phosphate, 60-minutes incubation at 70° C., FIG. 6): approximately 60%
phytase activity state ([1]; sodium phosphate below half of 352 mM, FIG. 6): nearly inactivated
phytase activity in presence of excipient and substrate ([2]; 150 mM sodium phosphate and 100 mM phytic acid substrate, FIG. 8): very little activity
increase in melting temperature of phytase ([3]; molar ratio of 130:1 sodium phosphate to phytase, phytase UFC, liquid state, FIGS. 2 and 3): approximately 5.5 °C
increase in melting temperature compared with citrate ([3]; normalized for charge equivalents, FIG. 5): much higher
SMILES: O=P([O-])([O-])O.[Na+].[Na+] [sodium phosphate, Sodium phosphate, dibasic, anhydrous]
stabilizing effect on Tm compared with other excipients ([3]; equivalent molar ratios to the phytase, normalized for anion equivalents, FIG. 4): greater than that of sodium phytate, sodium polyphosphate, and sodium sulfate

increase in Tm of phytase ([3]; molar ratio of 14:1 sodium phytate to phytase, phytase UFC, liquid state, FIG. 1): approximately 2.7 °C
SMILES: O=P(O)(O)O[C@H]1[C@H](OP(=O)(O)O)[C@@H](OP(=O)(O)O)[C@H](OP(=O)(O)O)[C@@H](OP(=O)(O)O)[C@H]1OP(=O)(O)O [sodium phytate, Phytic acid sodium salt hydrate, reference compound]
